Assay results published in ChEMBL document CHEMBL3352622, “Folded structure and insertion depth of the frog-skin antimicrobial Peptide esculentin-1b(1-18) in the presence of differently charged membrane-mimicking micelles” (J Nat Prod, 2014).
Calls of active or inactive are those of the source. The rule behind the calls is not given here. Where a SMILES comes first, the peptide text is derived from it.

Tested on: Human alphaherpesvirus 1
Test: Antiviral activity against HSV-1 assessed as reduction in infectivity in African green monkey Vero cells after 2 hrs by virus yield reduction assay
Type: functional, organism-based

Compound: CC[C@H](C)[C@H](NC(=O)CN)C(=O)N[C@@H](Cc1ccccc1)C(=O)N[C@@H](CO)C(=O)N[C@@H](CCCCN)C(=O)N[C@@H](CC(C)C)C(=O)N[C@@H](C)C(=O)NCC(=O)N[C@@H](CCCCN)C(=O)N[C@@H](CCCCN)C(=O)N[C@@H](CC(C)C)C(=O)N[C@@H](CCCCN)C(=O)N[C@@H](CC(N)=O)C(=O)N[C@@H](CC(C)C)C(=O)N[C@@H](CC(C)C)C(=O)N[C@H](C(=O)N[C@@H](CO)C(=O)NCC(N)=O)[C@@H](C)CC (H-GIFSKLAGKKLKNLLISG-NH2)
- Activity: inactive
